Laboratory results reported in patent US4013662A, “Alkyl and benzyl 6,7-dialkoxy-2-methyl-4-oxo-1,2,3,4-tetrahydroquinoline-1-carboxylates” (Pfizer Inc., priority 1975, dated 1977).

Assays:
[1] = Rat Flinch Jump Test (suppression of the jump component); assay type: in vivo; set-up: unit not given here
Description: D. Suppression of the "jump" component of the Flinch-Jump Test [Evans, Psychopharmacologia, 2, 318 (1961)].
The following results were obtained when the performance of the d-, l and dl- forms of a compound of the invention were compared in the Rat Flinch Jump Thresholds The control Jump Threshold using saline were 0.78 at 0.5 hr. and 0.92 at 2 hr.
The following results were obtained when 6,7-dimethoxy-2-methyl-4-oxo-1,2,3,4-tetrahydroquinoline, ethyl 6,7-dimethoxy-2-methyl-4-oxo-1,2,3,4-tetrahydroquinoline-1-carboxylate and benzyl 6,7-dimethoxy-2-methyl-4-oxo-1,2,3,4-tetrahydroquinoline-1-carboxylate were compared in the Rat Flinch Jump Test. The dosage of test compound was 56 mpk. Each of the compounds was in its racemic form.

[2] = Conditioned Avoidance Behavior (Maffi); assay type: in vivo; settings: 0.5 hr.
Description: (§1) A. Conditioned Avoidance Behavior [Maffi, J. Pharmacol., 11, 129 (1959); Sidman, Science, 118, 157 (1953)].

[3] = Conditioned Avoidance Behavior (Sidman); assay type: in vivo
Description: as §1

[4] = Sedation Test (jiggle cage); assay type: in vivo, male Sprague-Dawley rats; settings: oral, jiggle cage for 1 hr. from 1.5 hr.
Description: B. Sedation Test -- The subjects were male Sprague-Dawley rats weighing approximately 200 g and fed and watered ad lib before the experiment. Eight rats were assigned to each treatment group, and each rat was used only once.
1.5 hr. after oral treatment, each rat was placed in a standard jiggle cage for 1 hr. In this device, the subject was confined in a 6 × 6 × 3.5 in. Plexiglas enclosure. The enclosure was attached to one end of a flexible steel arm. This configuration, all of which was housed in a soundproof, ventilated chamber, allowed the enclosure to jiggle slightly with any movement. A force displacement transducer mounted under the jiggle cage monitored any vertical movement of the subject. The output of the transducer was coupled to a strain-gauge amplifier and to an analog recorder. To provide digital data of movement/non-movement times a trigger circuit was constructed in which the output of the strain-gauge amplifier was attentuated and rectified to activate a relay whenever the subject moved. When the relay remained deenergized for 3 sec., a timer was activated. Movement by the subject energized the relay and stopped the timer until 3 sec. of immobility recurred. This 3 sec. criterion eliminated brief periods of inactivity observed even in active rats. […]

[5] = Symptomatology (rotorod, inclined plane); assay type: in vivo, mice; settings: intraperitoneally; for Symptomatology, Inclined Plane: inability to remain on an inclined plane; for Symptomatology, Rotorod: inability to ride a rotating rod
Protocol: c. Symtomatology--Four groups of 3 mice were treated intraperitoneally with 31.6, 100, 316, or 1000 mg/kg of the test compound. At 1/2, 2, or 5 hours after treatment, symtomatological observations were made; observations were all-or-none, and classified into autonomic, muscular, reflex or behavioral categories. […] Symptoms interpreted as indicating tranquilizer activity included decreased spontaneous motor activity, inability to ride a rotating rod (rotorod), and inability to remain on an inclined plane.

[6] = Escape Titration Test; assay type: in vivo; settings: p.o.
Description: E. Escape Titration Test [Weiss et al, Science, 128, 1575 (1958) ].

[7] = PBQ Writhing (Suppression of Writhing Test); assay type: in vivo; settings: 100 mpk
Description: F. Suppression of Writhing Test [Siegmund et al, Proc. Sec. Exp. Biol., 95, 729 (1957].

[8] = Hot Plate Test; assay type: in vivo; settings: 100 mpk
Description: G. Hot Plate Test [Eddy et al, J. Pharm. Exp. Ther., 107, 385 (1953)].

[9] = Tail Flick Test; assay type: in vivo; settings: 100 mpk
Description: H. Tail Flick Test [Witkin et al, Proc. Soc. Exp. Biol., 101, 377 (1959)].

[10] = LD50; settings: in vivo
[11] = Mouse Tail Pinch Technique (modified Haffner procedure); assay type: in vivo, mice; settings: lack of an audible squeak
Description: The activity of compounds of this invention as analgesic agents has also been shown by testing their effectiveness in a Mouse Tail Pinch Technique. This technique was a modification of the Haffner procedure [Deutsche Med. Wochenschrifte, 55, 731-732 (1929)] in which the mice were strongly pinched on the base of the tail. An audible squeak was elicited in normal non-drugged mice. Lack of an audible squeak was taken as indication of analgesic activity in drugged mice.

[12] = 56 mpk, 0.5 hr., racemic compounds compared (table 4)
[13] = 56 mpk, 2.0 hr., racemic compounds compared (table 4)
[14] = 17.5 mpk, 2 hr, d-, l- and dl- forms compared, saline control 0.92
[15] = 17.5 mpk, .5 hr, d-, l- and dl- forms compared, saline control 0.78
[16] = 32 mpk, 2 hr, d-, l- and dl- forms compared, saline control 0.92
[17] = 32 mpk, .5 hr, d-, l- and dl- forms compared, saline control 0.78
[18] = 56 mpk, 2 hr, d-, l- and dl- forms compared, saline control 0.92
[19] = 56 mpk, .5 hr, d-, l- and dl- forms compared, saline control 0.78

## COc1cc2c(cc1OC)C(=O)CC(C)N2 (racemic) [6,7-Dimethoxy-2-methyl-4-oxo-1,2,3,4-tetrahydroquinoline]
[1]; [12]
  Jump Threshold: 1.47
[1]; [13]
  Jump Threshold: 1.10

## COc1cc2c(cc1OC)N(C(=O)OCc1ccccc1)C(C)CC2=O (racemic) [Benzyl 6,7-Dimethoxy-2-methyl-4-oxo-1,2,3,4-tetrahydroquinoline-1-carboxylate]
[1]; [12]
  Jump Threshold: 1.47
[1]; [13]
  Jump Threshold: 1.21

## CCOC(=O)N1c2cc(OC)c(OC)cc2C(=O)CC1C (racemic) [Ethyl 6,7-Dimethoxy-2-methyl-4-oxo-1,2,3,4-tetrahydroquinoline-1-carboxylate]
[1]; [14]
  Jump Threshold: 0.98
[1]; [15]
  Jump Threshold: 1.26
[1]; [16]
  Jump Threshold: 1.18
[1]; [17]
  Jump Threshold: 1.38
[1]; [12]
  Jump Threshold: 1.58
[1]; [13]
  Jump Threshold: 1.42
[1]; [18]
  Jump Threshold: 1.45
[1]; [19]
  Jump Threshold: 1.58

## CCOC(=O)N1c2cc(OC)c(OC)cc2C(=O)CC1C (single isomer, unassigned) [d-ethyl 6,7-dimethoxy-2-methyl-4-oxo-1,2,3,4-tetrahydroquino] [d-Ethyl 6,7-Dimethoxy-2-methyl-4-oxo-1,2,3,4-tetrahydroquinoline-1-carboxylate]
[1]; [14]
  Jump Threshold: 0.98
[1]; [15]
  Jump Threshold: 1.26
[1]; [16]
  Jump Threshold: 1.38
[1]; [17]
  Jump Threshold: 1.45
[1]; [18]
  Jump Threshold: 1.45
[1]; [19]
  Jump Threshold: 1.51

## CCOC(=O)N1c2cc(OC)c(OC)cc2C(=O)CC1C (single isomer, unassigned) [l-ethyl 6,7-dimethoxy-2-methyl-4-oxo-1,2,3,4-tetrahydroquino] [l-Ethyl 6,7-Dimethoxy-2-methyl-4-oxo-1,2,3,4-tetrahydroquinoline-1-carboxylate]
[1]; [14]
  Jump Threshold: 0.92
[1]; [15]
  Jump Threshold: 0.92
[1]; [16]
  Jump Threshold: 0.86
[1]; [17]
  Jump Threshold: 0.85
[1]; [18]
  Jump Threshold: 0.86
[1]; [19]
  Jump Threshold: 1.05

## CCOC(=O)N1c2cc(OC)c(OC)cc2C(=O)CC1C (stereo not shown) [drawing 7]
[2]
  Conditioned Avoidance Behavior, Maffi: Active at 56, 32 and 10 mpk
[3]; 17.8 mpk
  Conditioned Avoidance Behavior, Sidman: 2 of 3 animals
[3]; 32 mpk
  Conditioned Avoidance Behavior, Sidman: Active in 3 of 3 animals
[4]; 10 mpk
  Sedation Test: Inactive at 10
[4]; 32 mpk
  Sedation Test: Active at 32 mpk
[5]
  Symptomatology, Inclined Plane: 32-100 mpk
  Symptomatology, Rotorod: 3.2-10 mpk

## COC(=O)N1c2cc(OC)c(OC)cc2C(=O)CC1C (stereo not shown) [drawing 8]
[5]
  Symptomatology, Inclined Plane: 100-316 mpk
  Symptomatology, Rotorod: 100-316 mpk

## CCCCOC(=O)N1c2cc(OC)c(OC)cc2C(=O)CC1C (stereo not shown) [drawing 9]
[5]
  Symptomatology, Inclined Plane: 100-316 mpk
  Symptomatology, Rotorod: 32-100 mpk

## COc1cc2c(cc1OC)N(C(=O)OCc1ccccc1)C(C)CC2=O (stereo not shown) [drawing 10]
[5]
  Symptomatology, Inclined Plane: 100-316 mpk
  Symptomatology, Rotorod: 100-316 mpk

## CCOC(=O)N1c2cc(OC)c(OC)cc2C(=O)CC1C (stereo not shown) [drawing 11]
[1]; 3.2 mpk i.p., 2 h
  Rat Flinch Jump Test, Jump Threshold: .6
[1]; 3.2 mpk i.p., .5 h
  Rat Flinch Jump Test, Jump Threshold: .8
[1]; 10 mpk i.p., 2 h, Run two
  Rat Flinch Jump Test, Jump Threshold: .8
[1]; 32 mpk i.p., 2 h
  Rat Flinch Jump Test, Jump Threshold: > 2.2
[1]; 32 mpk i.p., .5 h
  Rat Flinch Jump Test, Jump Threshold: > 2.2
[6]
  Escape Titration: Active at 32 mpk (p.o.)
[7]
  PBQ Writhing: Inactive at 100 mpk
[8]; 2 h
  Hot Plate % Protected: 0%
[8]; .5 h
  Hot Plate % Protected: 0%
[9]; 2 h
  Tail Flick % Protected: 0%
[9]; .5 h
  Tail Flick % Protected: 0%
[10]
  LD50: > 1000 mg/kg

## COC(=O)N1c2cc(OC)c(OC)cc2C(=O)CC1C (stereo not shown) [drawing 12]
[1]; 32 mpk i.p., 2 h
  Rat Flinch Jump Test, Jump Threshold: 1.2
[1]; 32 mpk i.p., .5 h
  Rat Flinch Jump Test, Jump Threshold: 1.6
[7]
  PBQ Writhing: Inactive at 100 mpk
[8]; 2 h
  Hot Plate % Protected: 0%
[8]; .5 h
  Hot Plate % Protected: 0%
[9]; 2 h
  Tail Flick % Protected: 0%
[9]; .5 h
  Tail Flick % Protected: 0%
[10]
  LD50: > 1000 mg/kg

## CCCCOC(=O)N1c2cc(OC)c(OC)cc2C(=O)CC1C (stereo not shown) [drawing 13]
[1]; 32 mpk i.p., 2 h
  Rat Flinch Jump Test, Jump Threshold: 1.2
[1]; 32 mpk i.p., .5 h
  Rat Flinch Jump Test, Jump Threshold: 1.6
[7]
  PBQ Writhing: Inactive at 100 mpk
[8]; 2 h
  Hot Plate % Protected: 0%
[8]; .5 h
  Hot Plate % Protected: 0%
[9]; 2 h
  Tail Flick % Protected: 0%
[9]; .5 h
  Tail Flick % Protected: 0%
[10]
  LD50: 316 to 1000 mg/kg

## COc1cc2c(cc1OC)N(C(=O)OCc1ccccc1)C(C)CC2=O (stereo not shown) [drawing 14]
[7]
  PBQ Writhing: Inactive at 100 mpk
[10]
  LD50: > 1000 mg/kg

## CCOC(=O)N1c2cc(OC)c(OC)cc2C(=O)CC1C (stereo not shown) [drawing 15]
[11]
  ED50: > 100 mg/kg

## COC(=O)N1c2cc(OC)c(OC)cc2C(=O)CC1C (stereo not shown) [drawing 16]
[11]
  ED50: 100 to 316 mg/kg

## CCCCOC(=O)N1c2cc(OC)c(OC)cc2C(=O)CC1C (stereo not shown) [drawing 17]
[11]
  ED50: > 32 mg/kg
